# Several values for one entry are separate records, joined by “and”; a condition that tells them apart may be missing. Equal values may be shown once. Read-outs that look alike come from different tables or passages of the source.
# What was measured:
# D. immitis microfilariae = assay: In vitro efficacy against live D. immitis microfilariae (motility, completely immotile %); format: cell-based, Dirofilaria immitis; details: for Completely Immotile Microfilariae (%): single replicate; for effect on microfilariae: up to 120 h of culture
# DiMT protein = format: biochemical, Dirofilaria immitis; details: for IC50: read-out: IC 50 (μM ± SEM)
compound,measurement,setting,value
O=c1c(O)cccc2cc(O)c(O)c(O)c12 [NSC35676],Mean completely Immotile (%),"D. immitis microfilariae; 25 µM, 0 h",0%
same,Completely Immotile Microfilariae (%),"D. immitis microfilariae; 25 µM, 0 h",0%
same,Mean completely Immotile (%),"D. immitis microfilariae; 25 µM, 24 h",1%
same,Completely Immotile Microfilariae (%),"D. immitis microfilariae; 25 µM, 24 h",0% and 1% and 2%
same,Mean completely Immotile (%),"D. immitis microfilariae; 25 µM, 48 h",3%
same,Completely Immotile Microfilariae (%),"D. immitis microfilariae; 25 µM, 48 h",2% and 3% and 4%
same,Mean completely Immotile (%),"D. immitis microfilariae; 25 µM, 72 h",4.33%
same,Completely Immotile Microfilariae (%),"D. immitis microfilariae; 25 µM, 72 h",4% and 3% and 6%
same,Mean completely Immotile (%),"D. immitis microfilariae; 25 µM, 96 h",5.67%
same,Completely Immotile Microfilariae (%),"D. immitis microfilariae; 25 µM, 96 h",5% and 4% and 8%
same,Mean completely Immotile (%),"D. immitis microfilariae; 25 µM, 120 h",9.33%
same,Completely Immotile Microfilariae (%),"D. immitis microfilariae; 25 µM, 120 h",7% and 6% and 15%
same,Mean completely Immotile (%),"D. immitis microfilariae; 75 µM, 0 h",0%
same,Completely Immotile Microfilariae (%),"D. immitis microfilariae; 75 µM, 0 h",0%
same,Mean completely Immotile (%),"D. immitis microfilariae; 75 µM, 24 h",2.33%
same,Completely Immotile Microfilariae (%),"D. immitis microfilariae; 75 µM, 24 h",1% (2×) and 5%
same,Mean completely Immotile (%),"D. immitis microfilariae; 75 µM, 48 h",4.33%
same,Completely Immotile Microfilariae (%),"D. immitis microfilariae; 75 µM, 48 h",4% and 3% and 6%
same,Mean completely Immotile (%),"D. immitis microfilariae; 75 µM, 72 h",9%
same,Completely Immotile Microfilariae (%),"D. immitis microfilariae; 75 µM, 72 h",10% and 8% and 9%
same,Mean completely Immotile (%),"D. immitis microfilariae; 75 µM, 96 h",12%
same,Completely Immotile Microfilariae (%),"D. immitis microfilariae; 75 µM, 96 h",12% and 11% and 13%
same,Mean completely Immotile (%),"D. immitis microfilariae; 75 µM, 120 h",15.67%
same,Completely Immotile Microfilariae (%),"D. immitis microfilariae; 75 µM, 120 h",15% and 13% and 19%
same,Mean completely Immotile (%),"D. immitis microfilariae; 125 µM, 0 h",0%
same,Completely Immotile Microfilariae (%),"D. immitis microfilariae; 125 µM, 0 h",0%
same,Mean completely Immotile (%),"D. immitis microfilariae; 125 µM, 24 h",4.33%
same,Completely Immotile Microfilariae (%),"D. immitis microfilariae; 125 µM, 24 h",3% and 4% and 6%
same,Mean completely Immotile (%),"D. immitis microfilariae; 125 µM, 48 h",6%
same,Completely Immotile Microfilariae (%),"D. immitis microfilariae; 125 µM, 48 h",5% and 4% and 9%
same,Mean completely Immotile (%),"D. immitis microfilariae; 125 µM, 72 h",12.33%
same,Completely Immotile Microfilariae (%),"D. immitis microfilariae; 125 µM, 72 h",12% and 10% and 15%
same,Mean completely Immotile (%),"D. immitis microfilariae; 125 µM, 96 h",20.33%
same,Completely Immotile Microfilariae (%),"D. immitis microfilariae; 125 µM, 96 h",16% and 15% and 30%
same,Mean completely Immotile (%),"D. immitis microfilariae; 125 µM, 120 h",18.67%
same,Completely Immotile Microfilariae (%),"D. immitis microfilariae; 125 µM, 120 h",19% and 15% and 22%
same,Mean completely Immotile (%),"D. immitis microfilariae; 200 µM, 0 h",0%
same,Completely Immotile Microfilariae (%),"D. immitis microfilariae; 200 µM, 0 h",0%
same,Mean completely Immotile (%),"D. immitis microfilariae; 200 µM, 24 h",5%
same,Completely Immotile Microfilariae (%),"D. immitis microfilariae; 200 µM, 24 h",5% and 4% and 6%
same,Mean completely Immotile (%),"D. immitis microfilariae; 200 µM, 48 h",7.33%
same,Completely Immotile Microfilariae (%),"D. immitis microfilariae; 200 µM, 48 h",5% and 6% and 11%
same,Mean completely Immotile (%),"D. immitis microfilariae; 200 µM, 72 h",13.33%
same,Completely Immotile Microfilariae (%),"D. immitis microfilariae; 200 µM, 72 h",15% and 13% and 12%
same,Mean completely Immotile (%),"D. immitis microfilariae; 200 µM, 96 h",18.67%
same,Completely Immotile Microfilariae (%),"D. immitis microfilariae; 200 µM, 96 h",20% and 19% and 17%
same,Mean completely Immotile (%),"D. immitis microfilariae; 200 µM, 120 h",23%
same,Completely Immotile Microfilariae (%),"D. immitis microfilariae; 200 µM, 120 h",23% and 22% and 24%
same,effect on microfilariae,D. immitis microfilariae,insignificant effect
same,Mean Percent Inhibition (single experiments),DiMT protein; 15 µM,41.9 and 44.3 and 44.1
same,"Mean Percent Inhibition, Average",DiMT protein; 15 µM,43.4
same,Mean Percent Inhibition (single experiments),DiMT protein; 25 µM,45.9 and 51.6 and 47.0
same,"Mean Percent Inhibition, Average",DiMT protein; 25 µM,48.2
same,Mean Percent Inhibition (single experiments),DiMT protein; 50 µM,62.0 and 58.4 and 60.6
same,"Mean Percent Inhibition, Average",DiMT protein; 50 µM,60.4
same,Mean Percent Inhibition (single experiments),DiMT protein; 75 µM,63.8 and 67.9 and 65.4
same,"Mean Percent Inhibition, Average",DiMT protein; 75 µM,65.7
same,Mean Percent Inhibition (single experiments),DiMT protein; 100 µM,68.1 and 72.1 and 71.2
same,"Mean Percent Inhibition, Average",DiMT protein; 100 µM,70.5
same,IC50,DiMT protein,25.2 ± 1.4 µM
COc1ccc(-c2c(C)c(C(=O)O)nc(-c3ccc4c(O)c(OC)c5c(c4n3)=NC(C)(C)N=5)c2N)c(O)c1OC [NSC62709],Mean completely Immotile (%),"D. immitis microfilariae; 50 µM, 0 h",0%
same,Completely Immotile Microfilariae (%),"D. immitis microfilariae; 50 µM, 0 h",0%
same,Mean completely Immotile (%),"D. immitis microfilariae; 50 µM, 24 h",1.67%
same,Completely Immotile Microfilariae (%),"D. immitis microfilariae; 50 µM, 24 h",1% and 2% (2×)
same,Mean completely Immotile (%),"D. immitis microfilariae; 50 µM, 48 h",3.33%
same,Completely Immotile Microfilariae (%),"D. immitis microfilariae; 50 µM, 48 h",3% (2×) and 4%
same,Mean completely Immotile (%),"D. immitis microfilariae; 50 µM, 72 h",5.67%
same,Completely Immotile Microfilariae (%),"D. immitis microfilariae; 50 µM, 72 h",5% (2×) and 7%
same,Mean completely Immotile (%),"D. immitis microfilariae; 50 µM, 96 h",7.33%
same,Completely Immotile Microfilariae (%),"D. immitis microfilariae; 50 µM, 96 h",7% and 9% and 6%
same,Mean completely Immotile (%),"D. immitis microfilariae; 50 µM, 120 h",14%
same,Completely Immotile Microfilariae (%),"D. immitis microfilariae; 50 µM, 120 h",12% and 14% and 16%
same,Mean completely Immotile (%),"D. immitis microfilariae; 100 µM, 0 h",0%
same,Completely Immotile Microfilariae (%),"D. immitis microfilariae; 100 µM, 0 h",0%
same,Mean completely Immotile (%),"D. immitis microfilariae; 100 µM, 24 h",3.67%
same,Completely Immotile Microfilariae (%),"D. immitis microfilariae; 100 µM, 24 h",3% (2×) and 5%
same,Mean completely Immotile (%),"D. immitis microfilariae; 100 µM, 48 h",7%
same,Completely Immotile Microfilariae (%),"D. immitis microfilariae; 100 µM, 48 h",7% and 6% and 8%
same,Mean completely Immotile (%),"D. immitis microfilariae; 100 µM, 72 h",9.33%
same,Completely Immotile Microfilariae (%),"D. immitis microfilariae; 100 µM, 72 h",9% (2×) and 10%
same,Mean completely Immotile (%),"D. immitis microfilariae; 100 µM, 96 h",12.33%
same,Completely Immotile Microfilariae (%),"D. immitis microfilariae; 100 µM, 96 h",10% and 12% and 15%
same,Mean completely Immotile (%),"D. immitis microfilariae; 100 µM, 120 h",17%
same,Completely Immotile Microfilariae (%),"D. immitis microfilariae; 100 µM, 120 h",15% and 17% and 19%
same,Mean completely Immotile (%),"D. immitis microfilariae; 150 µM, 0 h",0%
same,Completely Immotile Microfilariae (%),"D. immitis microfilariae; 150 µM, 0 h",0%
same,Mean completely Immotile (%),"D. immitis microfilariae; 150 µM, 24 h",4.67%
same,Completely Immotile Microfilariae (%),"D. immitis microfilariae; 150 µM, 24 h",5% (2×) and 4%
same,Mean completely Immotile (%),"D. immitis microfilariae; 150 µM, 48 h",8.67%
same,Completely Immotile Microfilariae (%),"D. immitis microfilariae; 150 µM, 48 h",9% and 6% and 11%
same,Mean completely Immotile (%),"D. immitis microfilariae; 150 µM, 72 h",12.33%
same,Completely Immotile Microfilariae (%),"D. immitis microfilariae; 150 µM, 72 h",12% and 11% and 14%
same,Mean completely Immotile (%),"D. immitis microfilariae; 150 µM, 96 h",14.67%
same,Completely Immotile Microfilariae (%),"D. immitis microfilariae; 150 µM, 96 h",13% and 14% and 17%
same,Mean completely Immotile (%),"D. immitis microfilariae; 150 µM, 120 h",21.33%
same,Completely Immotile Microfilariae (%),"D. immitis microfilariae; 150 µM, 120 h",20% and 21% and 23%
same,Mean completely Immotile (%),"D. immitis microfilariae; 200 µM, 0 h",0%
same,Completely Immotile Microfilariae (%),"D. immitis microfilariae; 200 µM, 0 h",0%
same,Mean completely Immotile (%),"D. immitis microfilariae; 200 µM, 24 h",6.67%
same,Completely Immotile Microfilariae (%),"D. immitis microfilariae; 200 µM, 24 h",7% (2×) and 6%
same,Mean completely Immotile (%),"D. immitis microfilariae; 200 µM, 48 h",10.67%
same,Completely Immotile Microfilariae (%),"D. immitis microfilariae; 200 µM, 48 h",12% and 9% and 11%
same,Mean completely Immotile (%),"D. immitis microfilariae; 200 µM, 72 h",14.33%
same,Completely Immotile Microfilariae (%),"D. immitis microfilariae; 200 µM, 72 h",16% (2×) and 11%
same,Mean completely Immotile (%),"D. immitis microfilariae; 200 µM, 96 h",18.67%
same,Completely Immotile Microfilariae (%),"D. immitis microfilariae; 200 µM, 96 h",19% and 17% and 20%
same,Mean completely Immotile (%),"D. immitis microfilariae; 200 µM, 120 h",25.33%
same,Completely Immotile Microfilariae (%),"D. immitis microfilariae; 200 µM, 120 h",24% and 26% (2×)
same,effect on microfilariae,D. immitis microfilariae,insignificant effect
same,Mean Percent Inhibition,DiMT protein; 40 µM,32.1% and 22.9% and 27.7%
same,"Mean Percent Inhibition, Average",DiMT protein; 40 µM,27.6%
same,Mean Percent Inhibition,DiMT protein; 80 µM,63.8% and 49.7% and 46.2%
same,"Mean Percent Inhibition, Average",DiMT protein; 80 µM,53.2%
same,Mean Percent Inhibition,DiMT protein; 120 µM,65.7% and 71.6% and 62.3%
same,"Mean Percent Inhibition, Average",DiMT protein; 120 µM,66.5%
same,Mean Percent Inhibition,DiMT protein; 140 µM,72.8% and 64.4% and 72.4%
same,"Mean Percent Inhibition, Average",DiMT protein; 140 µM,69.9%
same,Mean Percent Inhibition,DiMT protein; 180 µM,81.5% and 69.4% and 74.5%
same,"Mean Percent Inhibition, Average",DiMT protein; 180 µM,75.1%
same,IC50,DiMT protein,76.2 ± 1.7 µM
COc1cc(C)c2c(c1C=O)Oc1c(c(C)c(O)c3c1C(O)OC3=O)OC2=O (centres unmarked) [NSC87511],effect on microfilariae,D. immitis microfilariae,insignificant effect
same,IC50,DiMT protein,155 ± 2.2 µM
CO[C@@H]1[C@@H](OC(=O)c2ccc(C)[nH]2)[C@@H](O)[C@H](Oc2ccc3c(O)c(NC(=O)c4ccc(O)c(CC=C(C)C)c4)c(=O)oc3c2Cl)OC1(C)C [NSC227186],Mean Percent Inhibition,DiMT protein; 10 µM,25.0% and 23.9% and 30.2%
same,"Mean Percent Inhibition, Average",DiMT protein; 10 µM,26.4%
same,Mean Percent Inhibition,DiMT protein; 40 µM,40.1% and 37.1% and 38.3%
same,"Mean Percent Inhibition, Average",DiMT protein; 40 µM,38.5%
same,Mean Percent Inhibition,DiMT protein; 70 µM,40.5% and 43.1% and 39.6%
same,"Mean Percent Inhibition, Average",DiMT protein; 70 µM,41.1%
same,Mean Percent Inhibition,DiMT protein; 100 µM,44.8% and 43.5% and 45.8%
same,"Mean Percent Inhibition, Average",DiMT protein; 100 µM,44.7%
same,Mean Percent Inhibition,DiMT protein; 130 µM,46.6% and 49.3% and 48.1%
same,"Mean Percent Inhibition, Average",DiMT protein; 130 µM,48.0%
same,Mean Percent Inhibition,DiMT protein; 160 µM,50.6% and 48.4% and 57.2%
same,"Mean Percent Inhibition, Average",DiMT protein; 160 µM,52.0%

# Reference: PMC11392244, “Characterization of a unique catechol-O-methyltransferase as a molecular drug target in parasitic filarial nematodes” (PLOS Neglected Tropical Diseases, 2024)
